Data on 3 substances can be found in patent US20220378920A1, “CONJUGATE OF GalNAc-OLIGONUCLEOTIDE FOR DELIVERY TO LIVER AND MANUFACTURING METHOD THEREOF” (DAIICHI SANKYO COMPANY, LIMITED, priority 2019, published 2022).

The subject of one data set is G6PC mRNA (c.648G>T). The data set is described as follows: Repair of abnormal splicing of G6PC mRNA in 293A cells cotransfected with human G6PC full-length plasmid vector (pcDNA hG6PC (c.648G>T)+Int4), qRT-PCR (SYBR Green). The class given is cell-based. As to conditions: cotransfection with plasmid vector, oligonucleotide final 20 nM, 24 hours. How it is done: 293A cells were maintained and cultured in a maintenance medium (DMEM, 10% FBS). In the experiment, cells were seeded on a 6-well plate at a density of 2×10^5 cells/well and on a 12-well plate at a density of 1×10^5 cells/well, and the compound of each example and a plasmid vector were simultaneously introduced on the next day, as will be described later, to be used for evaluation.
The compound of each example and a plasmid vector were cotransfected as follows.
In the case of using a 6-well plate, 250 μL of Opti-MEM Medium (Gibco), 0.50 μL of plasmid vector (1 mg/mL), and 4.0 μL (final: 20 nM) of the compound produced in each example (12.5 μM) as solution A and 250 μL of Opti-MEM Medium (Gibco) and 6.0 μL of Lipofectamine2000 (Invitrogen) as solution B were prepared per well, and solution A and solution B were mixed. […]
A human G6PC full-length plasmid vector (pcDNA hG6PC (c.648G>T)+Int4) and each oligonucleotide (15e_001, 15e_002, and the compound of Example 93 of International Publication No. WO 2004/048570 as a control) were cotransfected and evaluated by qRT-PCR (SYBR Green) for whether abnormal splicing due to G6PC (c.648G>T) was repaired. […]
Background: In qPCR the cycle at which signal appears reflects the starting amount.

Another data set has as its system ApoB mRNA. The data set is described as follows: Inhibition of ApoB mRNA expression in human primary hepatocytes, qRT-PCR (Taqman assay). The data set is classed as cell-based. Particulars: 72 hours, wells with no compounds added taken as 100%. The procedure:
FIG. 3 is a graph showing degradation effects of ApoB mRNA in human primary cultured hepatocytes when ApoB-ASO (white column) and an ApoB-ASO conjugate (filled column) are added to the cells. The amounts of ApoB mRNA in the cells are quantitatively evaluated relatively by qRT-PCR (corrected by the amount of actin mRNA). The Y axis represents relative values (%) in the addition groups when the amount of ApoB mRNA in untreated human primary cultured hepatocytes is taken as 100%.
FBS (Gibco) was added to a Modified Lanford Medium (Nissui Pharmaceutical Co., Ltd) to 10%, to prepare an adhesion medium. Frozen human primary hepatocytes (Gibco, Hu8105) were taken out from a liquid nitrogen tank, thawed at 37° C., then immediately poured into CHRM (Invitrogen), and gently mixed, followed by centrifugation (100 g, 10 minutes) at room temperature. The supernatant was removed with an aspirator, and then an adhesion medium heated to 37° C. was added, to prepare a cell suspension. The number of living cells was counted by an automatic counter (Bio-Rad Laboratories, Inc.), and then the cells were seeded on a collagen-coated 24-well plate (the number of living cells seeded: 1.4 to 2.1×10^5 cells/well). After culture in a CO2 incubator for 4 to 5 hours, the cells were confirmed to be adhered with a microscope, and the compound addition experiment described below was performed.
To a Modified Lanford Medium containing 10% FBS, was added the compound of Reference Example 45 with no GalNAc derivatives bound or the compound of Example 208 with a GalNAc derivative bound, to prepare a compound-containing medium with a target concentration (which was 100 nM in ApoB mRNA, expression evaluation (1) and 10 nM and 100 nM in ApoB mRNA expression evaluation (2), as described below). After the medium of human primary hepatocytes in each well cultured in the 24-well plate had been removed by aspiration, the compound-containing medium was added in an amount of 0.5 mL for each, to start incubation 72 hours later, the later-described RNA extraction experiment was performed
Following incubation, the compound-containing medium in each well of human primary hepatocytes was removed by aspiration and the cells were washed with ice-cooled PBS (0.5 mL). A 1/100 amount of 2-Mercaptoethanol was added to the RTL buffer of the RNeasy Mini QIAcube Kit (QIAGEN K.K.) to prepare a cell lysate. The cell lysate was added in an amount of 400 μL per well and collected after incubation at room temperature for 5 minutes. […]
The reverse transcription reaction was performed as follows. […] 20 μL of the reverse transcription reaction product was diluted 5 times with 80 μL of purified water and stored at −30° C. or evaluated by qRT-PCR as follows. […]

For “15e_001: oligonucleotide sequence 15e_001, the sequence of Example 8 (SEQ ID No: 40), tested as oligonucleotide (AAUCCGATGGCGAAG; chemistry not given here) [Example 15e_001]”, in the data set on G6PC mRNA (c.648G>T), the “abnormal splicing of G6PC mRNA due to G6PC (c.648G>T) repaired” value is given as “normalized”. In the case of “ApoB-ASO: oligonucleotide of the Example 24 sequence (SEQ ID No: 96) with no GalNAc units bound (AGCATTGGTATTCA; listed as DNA, further chemistry not given here)”, the “inhibition of ApoB mRNA expression” value in the data set on ApoB mRNA (10 nM) came to 4.4%; with ApoB mRNA (100 nM), 41.2%. “X^20-G^e2s-C^e2s-A^s-T^s-T^s-G^s-G^s-T^s-A^s-T^s-T^e2s-C^e2s-A^e2s-H [ApoB-ASO conjugate]”: the entries for the “inhibition of ApoB mRNA expression” value in the data set with ApoB mRNA (10 nM) and in the data set with ApoB mRNA (100 nM) were 30.3% and 68.6%, respectively.
